# Reference: US20170042878A1 (THE GENERAL HOSPITAL CORPORATION, priority 2012, published 2017)
# “Also recorded” adds a separate entry of the source. Like-named read-outs stand apart in the source and are kept apart here.
# What was measured:
# [1] = tested on: C57BL/6N mice; assay: Two-day forced swim test (FST) in mice; format: in vivo, mouse
# Method: (§1) Male 10 week C57BL/6N mice (Taconic) acclimated to a holding facility one week prior to testing. A two-day FST paradigm was employed, in which mice were exposed to a 10 minute test in absence of drug, and tested the following day in presence of drug in a 6 minute test. […] All animals were drug naïve and not previously exposed to behavioral testing.
# Male C57BL6N/Tac mice were purchased from Taconic Farms (Germantown, N.Y.) at 10 weeks of age. Mice were housed four mice per cage upon arrival under a 12:12 h light/dark cycle and were allowed to acclimate for approximately one week prior to behavioral procedures. Food and water were provided ad libitum. All procedures followed the National Institutes of Health Guide for the Care and Use of Laboratory Animals, and were approved by the Massachusetts Institute of Technology Animal Care and Use Committee.
# Mice were tested in a two day forced swim test (FST) procedure. On day 1, all mice received mock intraperitoneal vehicle (i.p.) injections to acclimate to the injection procedure and, 30 minutes later, were placed into one of five identical cylindrical chambers (24 cm×15 cm) filled approximately halfway with warm water (26)±2° for 10 minutes with no data collected. On day 2, mice received i.p. injections 30 minutes prior to being placed in a cylinder for a 6 minute session and immobility time was scored automatically (EthoVisionXT; Noldus Information Technology; Wageningen, Netherlands) during the final 4 minutes.
# For all FST behavioral experiments, the time spent immobile was the dependent variable, and data were analyzed by one-way analysis of variance (ANOVA) and Tukey post-hoc comparisons using SPSS v. 18 (IBM).
# [2] = tested on: C57BL/6N mice; assay: Home cage observation of motor activation after administration, prior to FST; details: scopolamine 0.5 and 1.0 mg/kg i.p.
# Method: as §1
# A dose at the low end of this range was selected (3 mg/kg i.p.) and administered to adult male C57BL/6N mice 30 min prior to the FST.
# [3] = tested on: depressed patients; details: cited from earlier work
# [4] = tested on: mice; details: scopolamine single administration 0.1 or 0.2 mg/kg i.p.; P<0.01 or P<0.001; cited from earlier work
# [5] = tested on: mice; details: cited from earlier work
# [6] = tested on: rats; details: cited from earlier work
# [7] = tested on: mTOR signaling; details: cited from earlier work
# [8] = tested on: NMDA receptor 1A; details: rat, in vivo; cited from earlier work
# [9] = tested on: NMDA receptor 2A; details: rat, in vivo; cited from earlier work
# [10] = in vivo; cited from earlier work
# [11] = tested on: rabbit; details: drugs injected immediately after completion of daily training sessions; cited from earlier work
# [12] = ketamine injection 1 mg/kg; cited from earlier work
# [13] = tested on: rats; details: rat, in vivo; cited from earlier work
# [14] = tested on: BDNF; details: ketamine sub-anesthetic doses; correlated with antidepressant effect; cited from earlier work
# [15] = tested on: mTOR pathway; details: ketamine 5 and 10 mg/kg i.p., cited from earlier work
smiles,measurement,setting,value
CN1[C@@H]2C[C@@H](OC(=O)[C@H](CO)c3ccccc3)C[C@H]1[C@@H]1O[C@@H]12 [scopolamine],effect on FST immobility time versus vehicle,"[1]; scopolamine 0.1 mg/kg i.p., p>0.05, FIG. 2",no change in immobility time versus vehicle; also recorded: did not significantly reduce immobility time
same,effect on FST immobility time versus vehicle,"[1]; scopolamine 0.5 mg/kg and 1.0 mg/kg i.p., p<0.05, likely due to non-specific motor activation, FIG. 2",substantially reduced immobility time
same,motor activation in the home cage after administration,[2],noticeably hyperactive; also recorded: visibly hyperactive
same,time after which patients report improvement,"[3]; scopolamine 0.004 mg/kg infusion (Furey and Drevets, 2006)",approximately 24 hours
same,clinical outcome in depressed patients,"[3]; scopolamine 0.004 mg/kg infusion, assessed 3 days after treatment",clinical improvement
same,immobility times in the tail suspension test versus vehicle,[4],decreased immobility times
same,immobility times in the forced swim test versus vehicle,"[5]; scopolamine single administration 0.1 or 0.2 mg/kg i.p., both P<0.001",decreased immobility times
same,effect on antidepressant effects of desipramine and nomifensine in the forced swim test,"[6]; scopolamine 0.5-1.0 mg/kg i.p., desipramine 20 or 30 mg/kg i.p., nomifensine 2.5 or 5 mg/kg i.p. (Mancinelli et al., 1988)",potentiated the antidepressant effects
same,mTOR signaling,[7],rapidly activate mTOR signaling
same,expression of NMDA receptor 1A,[8],decrease expression
same,expression of NMDA receptor 2A,[9],decrease expression
same,incremental acquisition aspect of task performance,[10],dose x difficulty related impairment
same,recognition memory aspect of task performance,[10],dose x difficulty related impairment
same,effect on conditioning of the nictitating membrane response,[11],retards
same,effect on ketamine-induced cerebral vasodilatation,[12],blocked
same,adult neurogenesis,[13],suppress adult neurogenesis
CNC1(c2ccccc2Cl)CCCCC1=O (stereo not shown) [ketamine],reduction in immobility versus vehicle,"[1]; ketamine 3 mg/kg i.p. 30 min prior to FST, modest and non-significant, FIG. 1",18%
same,effect on FST immobility time versus vehicle,"[1]; ketamine 3 mg/kg i.p. 30 minutes prior to testing, p>0.05, FIG. 1",modest non-significant antidepressant effect; also recorded: did not significantly reduce immobility time
same,persistence of improvement in depression ratings,"[3]; ketamine single intravenous infusion 0.5 mg/kg (Zarate et al., 2006)",approximately 1 week
same,time to significant improvement in depression ratings after administration,[3]; ketamine single intravenous infusion 0.5 mg/kg,1 to 2 h
same,antidepressant effect in the FST,"[5]; ketamine 3 mg/kg i.p., within 30 minutes, mouse models of depression (Autry et al., 2011)",exhibited an antidepressant effect
same,forced swim test immobility time versus vehicle,"[6]; ketamine 10 or 15 mg/kg i.p. (Garcia et al., 2008)",reduced forced swim test immobility time
same,forced swim test effect,"[6]; ketamine anesthetic dose 80 mg/kg i.p., immediately after treatment (Li et al., 2010)",no effect
same,forced swim test immobility time versus vehicle,"[6]; ketamine anesthetic dose 160 mg/kg i.p., tested 3, 7, or 10 days after treatment (Yilmaz et al., 2002)",significantly decreased
same,levels of BDNF in the hippocampus,[14],increased levels of BDNF
same,mature dendritic spines of medial PFC pyramidal neurons and serotonin-mediated cortical neurotransmission,[15]; at 24 hours,concomitant increases
same,levels of pre- and postsynaptic proteins,[15]; two hours after treatment,increased levels
same,phosphorylation and activation of mTOR pathway molecules in synaptoneurosomes from prefrontal cortex,[15]; within one hour of treatment,increase phosphorylation and activate several molecules in the mTOR pathway
same,recognition memory aspect of task performance,[10],dose-dependent impairment
same,effect on conditioning of the nictitating membrane response,[11],accelerates
same,cerebral vasodilatation,[12],significant cerebral vasodilatation
